Results taken from PubChem BioAssay AID1963982 (Molecular Pharmacology Branch, DTP, NCI, 2024).
pIC50: −log10 of the molar value.

System: 313798-341-R-J2-PDC spheroids, viability
Assay: Anticancer human tumor 313798-341-R-J2-PDC patient-derived cervical squamous cell carcinoma cell line growth inhibition [PI3K]
Conditions: spheroids with HUVEC and MSC; for pIC50: curve of first compound; for viability, T/C: stronger effect = lower value
Procedure, shortened: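 Tumor cells grown as multi-cell spheroids with HUVEC endothelial cells and MSC fibroblast-like stroma were treated with targeted agents combined with inavolisib, alpelisib, duvelisib or copanlisib. Doses fell in half-log steps from near clinical Cmax, else from 10 microM. Viability was measured.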

[1] = second compound 0.0316 µM, first compound 0.0316 µM
[2] = second compound 0.0316 µM, first compound 0.1 µM
[3] = second compound 0.1 µM, first compound 0.0316 µM
[4] = second compound 0.1 µM, first compound 0.1 µM
[5] = second compound 0.316 µM, first compound 0.0316 µM
[6] = second compound 0.316 µM, first compound 0.1 µM
[7] = second compound 1 µM, first compound 0.0316 µM
[8] = second compound 1 µM, first compound 0.1 µM
[9] = second compound 3.16 µM, first compound 0.0316 µM
[10] = second compound 3.16 µM, first compound 0.1 µM
[11] = second compound 10 µM, first compound 0.0316 µM
[12] = second compound 10 µM, first compound 0.1 µM
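Also: spheroids exposed to compounds for seven days.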
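For viability, T/C in this document: 100% = DMSO vehicle control viability.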

In the case of CC(C)n1nc(-c2ccc3oc(N)nc3c2)c2c(N)ncnc21 + CC(Nc1ncnc2nc[nH]c12)c1cc2cccc(Cl)c2c(=O)n1-c1ccccc1, the pIC50 (second compound 0.0316 µM) was 7.23, the pIC50 (second compound 0.1 µM) was 7.19 and the pIC50 (second compound 0.316 µM) was 7.19. It also gave a pIC50 (second compound 1 µM) of 7.30, a pIC50 (second compound 3.16 µM) of 7.26 and a pIC50 (second compound 10 µM) of 7.60. The viability, T/C (second compound 0.0316 µM, first compound 0.000316 µM) was 102%, the viability, T/C (second compound 0.0316 µM, first compound 0.001 µM) was 96.8% and the viability, T/C (second compound 0.0316 µM, first compound 0.00316 µM) was 108%. For the same compound, the viability, T/C (second compound 0.0316 µM, first compound 0.01 µM) was 96.5%, the viability, T/C [1] was 65.7% and the viability, T/C [2] was 36.6%. For the same compound, the viability, T/C (second compound 0.1 µM, first compound 0.000316 µM) was 109%, the viability, T/C (second compound 0.1 µM, first compound 0.001 µM) was 92.9% and the viability, T/C (second compound 0.1 µM, first compound 0.00316 µM) was 97%. The viability, T/C (second compound 0.1 µM, first compound 0.01 µM) was 101%, the viability, T/C [3] was 67.9% and the viability, T/C [4] was 39.1%. For the same compound, the viability, T/C (second compound 0.316 µM, first compound 0.000316 µM) was 101%, the viability, T/C (second compound 0.316 µM, first compound 0.001 µM) was 94.2% and the viability, T/C (second compound 0.316 µM, first compound 0.00316 µM) was 100%. For the same compound, the viability, T/C (second compound 0.316 µM, first compound 0.01 µM) was 97.4%, the viability, T/C [5] was 66.4% and the viability, T/C [6] was 40.2%. The viability, T/C (second compound 1 µM, first compound 0.000316 µM) was 100%, the viability, T/C (second compound 1 µM, first compound 0.001 µM) was 91.5% and the viability, T/C (second compound 1 µM, first compound 0.00316 µM) was 99.8%. It also gave a viability, T/C (second compound 1 µM, first compound 0.01 µM) of 89.7%, a viability, T/C [7] of 58.8% and a viability, T/C [8] of 36.8%. The viability, T/C (second compound 3.16 µM, first compound 0.000316 µM) was 117%, the viability, T/C (second compound 3.16 µM, first compound 0.001 µM) was 94.2% and the viability, T/C (second compound 3.16 µM, first compound 0.00316 µM) was 93.7%. It also gave a viability, T/C (second compound 3.16 µM, first compound 0.01 µM) of 82.2%, a viability, T/C [9] of 55.5% and a viability, T/C [10] of 40.6%. The viability, T/C (second compound 10 µM, first compound 0.000316 µM) was 87.6%, the viability, T/C (second compound 10 µM, first compound 0.001 µM) was 91.9% and the viability, T/C (second compound 10 µM, first compound 0.00316 µM) was 78.5%. It also gave a viability, T/C (second compound 10 µM, first compound 0.01 µM) of 57.1%, a viability, T/C [11] of 51.9% and a viability, T/C [12] of 27.1%.
Compound CC(C)NCC(C(=O)N1CCN(c2ncnc3c2C(C)CC3O)CC1)c1ccc(Cl)cc1 (centres undefined) + Cc1nc(NC(=O)N2CCCC2C(N)=O)sc1-c1ccnc(C(C)(C)C(F)(F)F)c1 has a pIC50 (second compound 0.0316 µM) of 5.68, a pIC50 (second compound 0.1 µM) of 5.56 and a pIC50 (second compound 0.316 µM) of 5.79. The pIC50 (second compound 1 µM) was 5.85, the pIC50 (second compound 3.16 µM) was 6.46 and the pIC50 (second compound 10 µM) was > 7.50. For the same compound, the viability, T/C [1] was 118%, the viability, T/C [2] was 100% and the viability, T/C (second compound 0.0316 µM, first compound 0.316 µM) was 88.7%. It also gave a viability, T/C (second compound 0.0316 µM, first compound 1 µM) of 65.7%, a viability, T/C (second compound 0.0316 µM, first compound 3.16 µM) of 37.8% and a viability, T/C (second compound 0.0316 µM, first compound 10 µM) of 32.4%. It also gave a viability, T/C [3] of 107%, a viability, T/C [4] of 102% and a viability, T/C (second compound 0.1 µM, first compound 0.316 µM) of 87.8%. It also gave a viability, T/C (second compound 0.1 µM, first compound 1 µM) of 72.4%, a viability, T/C (second compound 0.1 µM, first compound 3.16 µM) of 45.3% and a viability, T/C (second compound 0.1 µM, first compound 10 µM) of 33.6%. The viability, T/C [5] was 101%, the viability, T/C [6] was 93% and the viability, T/C (second compound 0.316 µM, first compound 0.316 µM) was 94%. For the same compound, the viability, T/C (second compound 0.316 µM, first compound 1 µM) was 58.5%, the viability, T/C (second compound 0.316 µM, first compound 3.16 µM) was 39.9% and the viability, T/C (second compound 0.316 µM, first compound 10 µM) was 32.7%. It also gave a viability, T/C [7] of 84.9%, a viability, T/C [8] of 97.4% and a viability, T/C (second compound 1 µM, first compound 0.316 µM) of 86.2%. For the same compound, the viability, T/C (second compound 1 µM, first compound 1 µM) was 55.3%, the viability, T/C (second compound 1 µM, first compound 3.16 µM) was 39.2% and the viability, T/C (second compound 1 µM, first compound 10 µM) was 30.3%. It also gave a viability, T/C [9] of 65.9%, a viability, T/C [10] of 58.6% and a viability, T/C (second compound 3.16 µM, first compound 0.316 µM) of 49.4%. For the same compound, the viability, T/C (second compound 3.16 µM, first compound 1 µM) was 45.8%, the viability, T/C (second compound 3.16 µM, first compound 3.16 µM) was 32.7% and the viability, T/C (second compound 3.16 µM, first compound 10 µM) was 30.2%. It also gave a viability, T/C [11] of 34%, a viability, T/C [12] of 33.5% and a viability, T/C (second compound 10 µM, first compound 0.316 µM) of 34.6%. The viability, T/C (second compound 10 µM, first compound 1 µM) was 34.3%, the viability, T/C (second compound 10 µM, first compound 3.16 µM) was 27.8% and the viability, T/C (second compound 10 µM, first compound 10 µM) was 22.3%.
